pEC50: −log10 of the molar value.
What was measured:
[1] = target: T1, alpha2B adrenergic receptor (Homo sapiens, UniProt P18089); assay: Receptor Selection and Amplification Technology (RSAT) assay, alpha2B; type: cell-based; conditions: for pEC50: RSAT, NIH-3T3 cells, agonism, read-out: EC50, Alpha 2B; for Emax: fraction of maximal effect of standard agonist brimonidine, read-out: intrinsic activity, Alpha 2B
T1 construct: expressed in transfected cells; host or cells: NIH-3T3
T1 sequence (P18089 1-450): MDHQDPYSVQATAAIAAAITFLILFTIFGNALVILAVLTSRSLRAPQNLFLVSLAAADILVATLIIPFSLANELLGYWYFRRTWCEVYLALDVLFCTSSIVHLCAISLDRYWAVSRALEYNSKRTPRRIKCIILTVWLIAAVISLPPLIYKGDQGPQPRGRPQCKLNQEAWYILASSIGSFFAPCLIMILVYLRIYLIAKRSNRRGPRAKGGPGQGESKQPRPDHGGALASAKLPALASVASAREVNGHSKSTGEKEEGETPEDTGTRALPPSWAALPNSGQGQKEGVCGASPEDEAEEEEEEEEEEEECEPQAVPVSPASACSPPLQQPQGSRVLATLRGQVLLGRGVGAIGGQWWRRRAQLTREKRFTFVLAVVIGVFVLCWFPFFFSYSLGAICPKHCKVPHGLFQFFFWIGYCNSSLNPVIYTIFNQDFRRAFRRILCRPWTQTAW
From the text: (§1) The imidazole-2-thione compounds of the invention are agonists of alpha2 adrenergic receptors, particularly they tend to be specific or selective agonists of alpha2B and/or to a lesser extent alpha2C adrenergic receptors, in preference over alpha2A adrenergic receptors. […] Al., 1995, Pharmacol. Toxicol. 76, pp. 308-311 (incorporated herein by reference) and is also described below. Another reference pertinent to this assay is Conklin et al. (1993) Nature 363:274-6, also incorporated herein by reference.
(§2) Receptor Selection and Amplification Technology (RSAT) Assay
The RSAT assay measures a receptor-mediated loss of contact inhibition that results in selective proliferation of receptor-containing cells in a mixed population of confluent cells. The increase in cell number is assessed with an appropriate transfected marker gene such as β-galactosidase, the activity of which can be easily measured in a 96-well format. Receptors that activate the G protein, Gq, elicit this response. Alpha2 receptors, which normally couple to Gi, activate the RSAT response when coexpressed with a hybrid Gq protein that has a Gi receptor recognition domain, called Gq/i5.
NIH-3T3 cells are plated at a density of 2×10^6 cells in 15 cm dishes and maintained in Dulbecco's modified Eagle's medium supplemented with 10% calf serum. One day later, cells are cotransfected by calcium phosphate precipitation with mammalian expression plasmids encoding p-SV-β-galactosidase (5-10 μg), receptor (1-2 μg) and G protein (1-2 μg). 40 μg salmon sperm DNA may also be included in the transfection mixture. Fresh media is added on the following day and 1-2 days later, cells are harvested and frozen in 50 assay aliquots. Cells are thawed and 100 μl added to 100 μl aliquots of various concentrations of drugs in triplicate in 96-well dishes. Incubations continue 72-96 hr at 37° C. After washing with phosphate-buffered saline, β-galactosidase enzyme activity is determined by adding 200 μl of the chromogenic substrate (consisting of 3.5 mM o-nitrophenyl-β-D-galactopyranoside and 0.5% nonidet P-40 in phosphate buffered saline), incubating overnight at 30° C. and measuring optical density at 420 nm. The absorbance is a measure of enzyme activity, which depends on cell number and reflects a receptor-mediated cell proliferation. The EC50 and maximal effect of each drug at each alpha2 receptor is determined. The efficacy or intrinsic activity is calculated as a ratio of the maximal effect of the drug to the maximal effect of a standard full agonist for each receptor subtype. Brimonidine, also called UK14304, the chemical structure of which is shown below, is used as the standard agonist for the alpha2A, alpha2B and alpha2C receptors. […]

[2] = system: rats with surgical ligation of L5 and L6 spinal nerves (tactile allodynia); assay: Chung model of neuropathic pain (tactile allodynia, von Frey hairs); type: in vivo, rat; conditions: 30 min after dosing
From the text: Alleviation of Chronic Pain
A model in accordance with Kim and Chung 1992, Pain […], pp 355-363 (Chung model), for chronic pain (in particular peripheral neuropathy) involves the surgical ligation of the L5 (and optionally the L6) spinal nerves on one side in experimental animals. Rats recovering from the surgery gain weight and display a level of general activity similar to that of normal rats. However, these rats develop abnormalities of the foot, wherein the hindpaw is moderately everted and the toes are held together. More importantly, the hindpaw on the side affected by the surgery appears to become sensitive to pain from low-threshold mechanical stimuli, such as that producing a faint sensation of touch in a human, within about 1 week following surgery. This sensitivity to normally non-painful touch is called “tactile allodynia” and lasts for at least two months. The response includes lifting the affected hindpaw to escape from the stimulus, licking the paw and holding it in the air for many seconds. None of these responses is normally seen in the control group.
Rats are anesthetized before surgery. The surgical site is shaved and prepared either with betadine or Novacaine. Incision is made from the thoracic vertebra X111 down toward the sacrum. Muscle tissue is separated from the spinal vertebra (left side) at the L4-S2 levels. The L6 vertebra is located and the transverse process is carefully removed with a small rongeur to expose the L4-L6 spinal nerves. The L5 and L6 spinal nerves are isolated and tightly ligated with 6-0 silk thread. The same procedure is done on the right side as a control, except no ligation of the spinal nerves is performed.
A complete hemostasis is confirmed, then the wounds are sutured. A small amount of antibiotic ointment is applied to the incised area, and the rat is transferred to the recovery plastic cage under a regulated heat-temperature lamp. On the day of the experiment, at least seven days after the surgery, typically six rats per test group are administered the test drugs by intraperitoneal (i.p.) injection or oral gavage. For i.p. injection, the compounds are formulated in approximately 10 to 50% DMSO and given in a volume of 1 ml/kg body weight.
Tactile allodynia is measured prior to and 30 minutes after drug administration using von Frey hairs that are a series of fine hairs with incremental differences in stiffness. Rats are placed in a plastic cage with a wire mesh bottom and allowed to acclimate for approximately 30 minutes. The von Frey hairs are applied perpendicularly through the mesh to the mid-plantar region of the rats' hindpaw with sufficient force to cause slight buckling and held for 6-8 seconds. The applied force has been calculated to range from 0.41 to 15.1 grams. If the paw is sharply withdrawn, it is considered a positive response. A normal animal will not respond to stimuli in this range, but a surgically ligated paw will be withdrawn in response to a 1-2 gram hair. The 50% paw withdrawal threshold is determined using the method of Dixon, W. J., Ann. Rev. Pharmacol. Toxicol. 20:441-462 (1980). The post-drug threshold is compared to the pre-drug threshold and the percent reversal of tactile sensitivity is calculated based on a normal threshold of 15.1 grams. The results are expressed in percent (%) MPE, where the MPE value reflects the percentage reversal of pain threshold to that of a normal animal (100%). Table 3 below indicates results of this test with Compounds 1, 7 and 29 of the invention, administered i.p. and in oral doses.

[3] = target: T2, alpha2C adrenergic receptor (Homo sapiens, UniProt P18825); assay: Receptor Selection and Amplification Technology (RSAT) assay, alpha2C; type: cell-based; conditions: NIH-3T3 cells, agonism, read-out: EC50, Alpha 2C
T2 construct: expressed in transfected cells; host or cells: NIH-3T3
T2 sequence (P18825 1-462): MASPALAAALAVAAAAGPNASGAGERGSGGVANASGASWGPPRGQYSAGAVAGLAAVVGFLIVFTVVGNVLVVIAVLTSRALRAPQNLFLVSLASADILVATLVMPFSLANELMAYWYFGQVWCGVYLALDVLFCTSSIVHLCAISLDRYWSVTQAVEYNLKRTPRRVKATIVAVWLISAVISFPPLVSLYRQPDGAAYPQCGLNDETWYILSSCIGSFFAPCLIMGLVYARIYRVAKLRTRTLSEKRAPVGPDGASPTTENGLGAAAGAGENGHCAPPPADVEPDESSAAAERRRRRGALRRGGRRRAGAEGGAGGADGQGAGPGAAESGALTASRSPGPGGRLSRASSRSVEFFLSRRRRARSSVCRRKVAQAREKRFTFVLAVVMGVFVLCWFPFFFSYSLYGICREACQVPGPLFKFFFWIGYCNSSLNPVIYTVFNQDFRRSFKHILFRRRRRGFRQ
From the text: as §1, §2
(§3) The RSAT assay measures a receptor-mediated loss of contact inhibition that results in selective proliferation of receptor-containing cells in a mixed population of confluent cells. The increase in cell number is assessed with an appropriate transfected marker gene such as β-galactosidase, the activity of which can be easily measured in a 96-well format. […]
(§4) NIH-3T3 cells are plated at a density of 2×10^6 cells in 15 cm dishes and maintained in Dulbecco's modified Eagle's medium supplemented with 10% calf serum. […] After washing with phosphate-buffered saline, β-galactosidase enzyme activity is determined by adding 200 μl of the chromogenic substrate (consisting of 3.5 mM o-nitrophenyl-β-D-galactopyranoside and 0.5% nonidet P-40 in phosphate buffered saline), incubating overnight at 30° C. and measuring optical density at 420 nm. […]

[4] = target: T3, alpha2A adrenergic receptor (Homo sapiens, UniProt P08913); assay: Receptor Selection and Amplification Technology (RSAT) assay, alpha2A; type: cell-based; conditions: NIH-3T3 cells, agonism, read-out: EC50, Alpha 2A
T3 sequence (P08913 1-465): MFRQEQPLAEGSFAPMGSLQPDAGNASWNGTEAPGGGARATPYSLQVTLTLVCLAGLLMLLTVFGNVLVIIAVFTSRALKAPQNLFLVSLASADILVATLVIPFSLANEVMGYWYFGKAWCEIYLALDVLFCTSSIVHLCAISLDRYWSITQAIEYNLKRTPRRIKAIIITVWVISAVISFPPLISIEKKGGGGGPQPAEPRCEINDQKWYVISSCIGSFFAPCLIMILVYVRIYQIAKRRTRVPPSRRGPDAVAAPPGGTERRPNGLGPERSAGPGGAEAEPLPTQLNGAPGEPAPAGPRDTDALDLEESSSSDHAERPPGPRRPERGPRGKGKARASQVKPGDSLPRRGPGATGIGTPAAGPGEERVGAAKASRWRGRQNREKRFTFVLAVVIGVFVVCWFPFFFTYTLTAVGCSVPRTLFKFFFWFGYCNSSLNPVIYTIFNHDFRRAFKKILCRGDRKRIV
From the text: as §1, §2, §3, §4

Compound	pEC50 [1]	Emax [1]	% Pain Reversal ± SEM ([2]; 10 μg/kg i.p.)	% Pain Reversal ± SEM ([2]; 30 μg/kg i.p.)	% Pain Reversal ± SEM ([2]; 100 μg/kg i.p.)	% Pain Reversal ± SEM ([2]; 100 μg/kg p.o.)	% Pain Reversal ± SEM ([2]; 300 μg/kg i.p.)	pEC50 [3]	pEC50 [4]	% Pain Reversal ± SEM ([2]; 30 μg/kg p.o.)	% Pain Reversal ± SEM ([2]; 300 μg/kg p.o.)
Cc1ccc2c(n1)CC(Cc1c[nH]c(=S)[nH]1)CC2 (racemic) [Compound 201, 4-(2-methyl-5,6,7,8-tetrahydro-quinolin-7-ylmethyl)-1,3-dihydro-imidazole-2-thione]	6.95	104%	0.65 ± 0.91%	42 ± 5.7%	75.1 ± 5.7%	64 ± 7%	82.5 ± 7.4%	< 5.00	< 5.00	–	–
Cc1ccc2c(n1)CC(Cc1c[nH]c(=S)[nH]1)CC2 (single isomer, unassigned) [Compound 202, 4-(2-methyl-5,6,7,8-tetrahydro-quinolin-7-ylmethyl)-1,3-dihydro-imidazole-2-thione]	7.04	99%	–	–	–	49 ± 7.2%	–	< 5.00	< 5.00	28 ± 8.5%	75 ± 8.1%

Source: patent US7276522B2, “4-(substituted cycloalkylmethyl) imidazole-2-thiones, 4-(substituted cycloalkenylmethyl) imidazole-2-thiones, 4-(substituted cycloalkylmethyl) imidazol-2-ones, 4-(substituted cycloalkenylmethyl) imidazol-2-ones and related compounds” (Allergan, Inc., priority 2002, dated 2007)
